Laboratory results: patent US6528049B2, “Bisexual attractants, aggregants and arrestants for adults and larvae of codling moth and other species of lepidoptera” (Trece, Inc., priority 1999, dated 2003)

Assays:
Format in all cases: in vivo, Cydia pomonella
male codling moth = test: Pheromone preference paired-trap test: pheromone alone vs pheromone + HPV; settings: for % Change (Ph+HPV/Phxl00) in Male CM Capture / Impact of HPV Blend on Pheromone Attractancy to Male CM / Male CM Capture with Pheromone + HPV Blend: ♂♂/trap/night ± SEM: Table 9
Description: Interaction of synthetic apple and pear odor blends, described above in Table 2, and their effect on the attractancy of synthetic pheromone to codling moth was also studied. For that purpose, series of paired-traps containing pheromone alone or pheromone in combination with synthetic host plant volatile blends were placed in walnut orchards.
Interaction of individual synthetic host plant volatiles or blends on the attractiveness of synthetic male pheromone to male codling moth administered in paired traps with pheromone alone or with pheromone and attractant 10 mg/red septum was also studied.
Pheromone traps (sticky wing traps, Trécé, Inc.,) were hung as pairs: a pheromone only baited-trap vs. a pheromone+HPV blend-baited trap. The two traps of a test pair were attached in close competitive proximity (120 cm apart) on a common hanger bar (PVC pipe). The paired-trap bars were hung 5-6 meters high on the outer canopies of trees. A single pair-trap was hung per tree and different replicate test trees were separated by five rows in a matrix through the orchard. Each pheromone trap was baited with ½ of a commercial pheromone-impregnated rubber septum (Trécé, Inc.). Septa were sectioned by a razor blade. The HPV blends evaporated from their own separate impregnated rubber septa containing 10 mg diluted in hexane/septum).
Tests were conducted in a Harley English walnut orchard. Tests spanned the entire two year seasons April-October with traps checked, males sexed, counted and removed every 2-7 days. Significant effect on pheromone trap capture were judged by paired tests either T-test or a nonparametric test.

codling moth [1] = test: Trap capture with purified (2E,4E) and (2E,4Z) 2,4-decadienoic acid esters; settings: 1 mg dose/gray septum; four orchards; means of 21 trap checks
Protocol: In this study, test compounds were highly purified synthetic samples. The purities of the compounds are expressed as percentages. Individual traps were baited with 1 mg dose/gray septum; five replicate blocks in four orchards; means of 21 total trap checks.

codling moth [2] = test: Septa colour and loading dose trap study; set-up: ♂♂ ± SEM / ♀♀ ± SEM: unit not given here
Protocol: Since there have been differences observed between traps containing gray, white or red septa, a study was performed to determine the significance of the specific septa and their effect on the increase or decrease of attractancy. […]

[3] = 0.1 mg A, Gray Septa, High (high population conventional orchard)
[4] = 0.1 mg A, Gray Septa, Low (low population organic orchard)
[5] = 0.1 mg A, Red Septa, High (high population conventional orchard)
[6] = 0.1 mg A, Red Septa, Low (low population organic orchard)
[7] = 1.0 mg A, Gray Septa, High (high population conventional orchard)
[8] = 1.0 mg A, Gray Septa, Low (low population organic orchard)
[9] = 1.0 mg A, Red Septa, Low (low population organic orchard)
[10] = 3 mg A, Gray Septa, High (high population conventional orchard)
[11] = 3 mg A, Gray Septa, Low (low population organic orchard)
[12] = 3 mg A, Red Septa, High (high population conventional orchard)
[13] = 3 mg A, Red Septa, Low (low population organic orchard)
[14] = 10 mg A, Gray Septa, High (high population conventional orchard)
[15] = 10 mg A, Gray Septa, Low (low population organic orchard)
[16] = 10 mg A, Red Septa, High (high population conventional orchard)
[17] = 10 mg A, Red Septa, Low (low population organic orchard)
[18] = 20 mg A, Gray Septa, High (high population conventional orchard)
[19] = 20 mg A, Gray Septa, Low (low population organic orchard)
[20] = 20 mg A, Red Septa, High (high population conventional orchard)
[21] = 20 mg A, Red Septa, Low (low population organic orchard)
[22] = Gray Septa, High (high population conventional orchard)
[23] = Gray Septa, Low (low population organic orchard)
[24] = Red Septa, High (high population conventional orchard)
[25] = Red Septa, Low (low population organic orchard)

C=CC(=C)CCC=C(C)C [Myrcene]
% Change (Ph+HPV/Phxl00) in Male CM Capture (male codling moth): 84%
Impact of HPV Blend on Pheromone Attractancy to Male CM (male codling moth): No Effect
Male CM Capture with Pheromone + HPV Blend: ♂♂/trap/night ± SEM (male codling moth; 10 mg/red septum): 1.03 ± 0.26 ♂♂/trap/night

CCCCC/C=C\C=C\C(=O)OCCCCCC [Hexyl (2E,4Z)-2,4-Decadienoate (100%), Hexyl (2E,4Z)-2,4-Decadienoate]
FEMALE CM Captured: ♂♂/trap/night ± SEM (codling moth [1]): 0.02 ♀♀/trap/night
MALE CM Captured: ♂♂/trap/night ± SEM (codling moth [1]): 0.01 ± 0.01 ♂♂/trap/night
Total CM Captured: CM/trap/night ± SEM (codling moth [1]): 0.02 ± 0.02 CM/trap/night

CCCCC/C=C\C=C\C(=O)OCC [Ethyl (2E,4Z)-2,4-Decadienoate, #2 (88.5%)]
MALE CM Captured: ♂♂/trap/night ± SEM (codling moth [1]): 1.89 ± 0.79 ♂♂/trap/night
Total CM Captured: CM/trap/night ± SEM (codling moth [1]): 4.25 ± 1.43 CM/trap/night

CCCCC/C=C/C=C/C(=O)OC(C)C [Isopropyl (2E,4E)-2,4-Decadienoate]
FEMALE CM Captured: ♂♂/trap/night ± SEM (codling moth [1]): 0.09 ± 0.04 ♀♀/trap/night
MALE CM Captured: ♂♂/trap/night ± SEM (codling moth [1]): 0.05 ± 0.02 ♂♂/trap/night
Total CM Captured: CM/trap/night ± SEM (codling moth [1]): 0.14 ± 0.05 CM/trap/night

C=C1CCC2CC1C2(C)C (stereo not drawn) [β-Pinene]
% of pheromone-alone capture (line under HPV + Pheromone value) (male codling moth; Table 8, Orchard #1): 61%
Male CM Captured, HPV + Pheromone Trap: ± SEM (male codling moth; Table 8, Orchard #1, 10 mg/red septum): 0.75 ± 0.50 ♂♂/trap/night
% of pheromone-alone capture (line under HPV + Pheromone value) (male codling moth; Table 8, Orchard #2): 63%
Male CM Captured, HPV + Pheromone Trap ± SEM (male codling moth; Table 8, Orchard #2, 10 mg/red septum): 1.25 ± 0.29 ♂♂/trap/night
% of pheromone-alone capture (line under HPV + Pheromone value) (male codling moth; Table 8, Orchard #3): 130%
Male CM Captured, HPV + Pheromone Trap: ± SEM (male codling moth; Table 8, Orchard #3, 10 mg/red septum): 3.37 ± 0.53 ♂♂/trap/night
% of pheromone-alone capture (line under HPV + Pheromone value) (male codling moth; Table 8, Orchard #4): 112%
Male CM Captured, HPV + Pheromone Trap: ± SEM (male codling moth; Table 8, Orchard #4, 10 mg/red septum): 4.95 ± 0.76 ♂♂/trap/night
Average % Change in ♂♂ CM Capture (male codling moth; Table 8, average of four orchards): 92%

CCCCC/C=C/C=C/C(=O)OCCCC [Butyl (2E,4E)-2,4-Decadienoate]
FEMALE CM Captured: ♂♂/trap/night ± SEM (codling moth [1]): 0 ♀♀/trap/night
MALE CM Captured: ♂♂/trap/night ± SEM (codling moth [1]): 0.02 ± 0.02 ♂♂/trap/night
Total CM Captured: CM/trap/night ± SEM (codling moth [1]): 0.02 ± 0.02 CM/trap/night

CC1=CCC(C(C)C)=CC1 [gamma-Terpinene]
% Change (Ph+HPV/Phxl00) in Male CM Capture (male codling moth): 93%
Impact of HPV Blend on Pheromone Attractancy to Male CM (male codling moth): No Effect
Male CM Capture with Pheromone + HPV Blend: ♂♂/trap/night ± SEM (male codling moth; 10 mg/red septum): 0.88 ± 0.28 ♂♂/trap/night

CCCCC/C=C\C=C\C(=O)OCC [A, ethyl (2E,4Z)-2,4-decadienoate]
♀♀ ± SEM (codling moth [2]; [3]): 1.40 ± 0.52
♂♂ ± SEM (codling moth [2]; [3]): 5.88 ± 1.80
♀♀ ± SEM (codling moth [2]; [4]): 1.05 ± 0.49
♂♂ ± SEM (codling moth [2]; [4]): 0.97 ± 0.47
♀♀ ± SEM (codling moth [2]; [5]): 2.76 ± 0.80
♂♂ ± SEM (codling moth [2]; [5]): 1.04 ± 0.41
♀♀ ± SEM (codling moth [2]; [6]): 0.43 ± 0.18
♂♂ ± SEM (codling moth [2]; [6]): 0.78 ± 0.55
♀♀ ± SEM (codling moth [2]; [7]): 4.77 ± 1.34
♂♂ ± SEM (codling moth [2]; [7]): 3.86 ± 1.55
♀♀ ± SEM (codling moth [2]; [8]): 0.84 ± 0.30
♂♂ ± SEM (codling moth [2]; [8]): 1.13 ± 0.63
♀♀ ± SEM (codling moth [2]; 1.0 mg A, Red Septa, High (high population conventional orchard)): 4.12 ± 1.37
♀♀ ± SEM (codling moth [2]; [9]): 1.06 ± 0.49
♂♂ ± SEM (codling moth [2]; [9]): 1.38 ± 0.60
♀♀ ± SEM (codling moth [2]; [10]): 5.25 ± 1.33
♂♂ ± SEM (codling moth [2]; [10]): 6.20 ± 1.25
♀♀ ± SEM (codling moth [2]; [11]): 1.18 ± 0.37
♂♂ ± SEM (codling moth [2]; [11]): 2.02 ± 0.72
♀♀ ± SEM (codling moth [2]; [12]): 6.46 ± 1.98
♂♂ ± SEM (codling moth [2]; [12]): 4.40 ± 1.28
♀♀ ± SEM (codling moth [2]; [13]): 0.69 ± 0.26
♂♂ ± SEM (codling moth [2]; [13]): 0.78 ± 0.35
♀♀ ± SEM (codling moth [2]; [14]): 5.77 ± 1.30
♂♂ ± SEM (codling moth [2]; [14]): 3.59 ± 0.92
♀♀ ± SEM (codling moth [2]; [15]): 1.28 ± 0.33
♂♂ ± SEM (codling moth [2]; [15]): 1.29 ± 0.36
♀♀ ± SEM (codling moth [2]; [16]): 7.04 ± 1.90
♂♂ ± SEM (codling moth [2]; [16]): 4.25 ± 0.99
♀♀ ± SEM (codling moth [2]; [17]): 0.57 ± 0.15
♂♂ ± SEM (codling moth [2]; [17]): 0.87 ± 0.41
♀♀ ± SEM (codling moth [2]; [18]): 3.59 ± 1.46
♂♂ ± SEM (codling moth [2]; [18]): 6.14 ± 1.46
♀♀ ± SEM (codling moth [2]; [19]): 2.83 ± 1.07
♂♂ ± SEM (codling moth [2]; [19]): 2.97 ± 0.97
♀♀ ± SEM (codling moth [2]; [20]): 5.43 ± 1.78
♂♂ ± SEM (codling moth [2]; [20]): 2.87 ± 0.88
♀♀ ± SEM (codling moth [2]; [21]): 0.66 ± 0.15
♂♂ ± SEM (codling moth [2]; [21]): 0.94 ± 0.20
♂♂ ± SEM (50 mg A) (codling moth [2]; [22]): 10.15 ± 2.04
♂♂ ± SEM (under 50 mg A) (codling moth [2]; [22]): 6.18 ± 1.60
♂♂ ± SEM (50 mg A) (codling moth [2]; [23]): 1.79 ± 0.69
♂♂ ± SEM (under 50 mg A) (codling moth [2]; [23]): 2.04 ± 0.83
♂♂ ± SEM (50 mg A) (codling moth [2]; [24]): 7.30 ± 2.00
♂♂ ± SEM (under 50 mg A) (codling moth [2]; [24]): 3.63 ± 0.93
♂♂ ± SEM (50 mg A) (codling moth [2]; [25]): 0.74 ± 0.24
♂♂ ± SEM (under 50 mg A) (codling moth [2]; [25]): 0.57 ± 0.18

C=C/C(C)=C/C/C=C(\C)CCC=C(C)C [alpha-Farnesene]
% Change (Ph+HPV/Phxl00) in Male CM Capture (male codling moth): 86%
Impact of HPV Blend on Pheromone Attractancy to Male CM (male codling moth): No Effect
Male CM Capture with Pheromone + HPV Blend: ♂♂/trap/night ± SEM (male codling moth; 10 mg/red septum): 1.38 ± 0.39 ♂♂/trap/night
